Laboratory results published in patent publication US11090319B2, “Therapeutic uses of pharmaceutical compositions comprising cyclic boronic acid ester derivatives” (Melinta Subsidiary Corp., priority 2010, dated 2021).
Where two headings read alike, the source gives them in different places.

Columns and labels:
[1] = test system: strains expressing class A ESBLs; type: cell-based; settings: tigemonam at 4 μg/mL; for MPC4 TEM-10 EC1009: strain EC1009 TEM-10; for MPC4 CTX-M-14 KP1005: strain KP1005 CTX-M-14; for MPC4 CTX-M-15 KP1009: strain KP1009 CTX-M-15; for MPC4 SHV-12 KP1010: strain KP1010 SHV-12; for MPC4 SHV-18 KP1012: strain KP1012 SHV-18; for MPC4 TEM-10 ec302: strain ec302 TEM-10; for MPC4 TEM-26 ec304: strain ec304 TEM-26; for MPC4 SHV-5 ec308: strain ec308 SHV-5
Protocol: Selected β-lactamase inhibitors were also tested for their ability to potentiate the monobactam tigemonam.

[2] = test system: strains expressing KPC alone or in combination with additional beta-lactamases; assay: microbe, parasite or virus in culture; type: cell-based

| SMILES | MPC4 TEM-10 EC1009 [1] | MPC4 CTX-M-14 KP1005 [1] | MPC4 CTX-M-15 KP1009 [1] | MPC4 SHV-12 KP1010 [1] | MPC4 SHV-18 KP1012 [1] | MPC4 TEM-10 ec302 [1] | MPC4 TEM-26 ec304 [1] | MPC4 SHV-5 ec308 [1] | also measured |
| --- | --- | --- | --- | --- | --- | --- | --- | --- | --- |
| O=C(O)C[C@H]1C=CC[C@H](NC(=O)Cc2cccs2)B(O)O1 [Compound 68, 2-((3R,7S)-2-hydroxy-3-(2-(thiophen-2-yl)acetamido)-2,3,4,7-tetrahydro-1,2-oxaborepin-7-yl)acetic acid] | Y (MPC@4 of 2 μg/mL to 10 μg/mL) | Y (MPC@4 of 2 μg/mL to 10 μg/mL) | Y (MPC@4 of 2 μg/mL to 10 μg/mL) | X (MPC@4 of less than 2 μg/mL) | X (MPC@4 of less than 2 μg/mL) | Y (MPC@4 of 2 μg/mL to 10 μg/mL) | Y (MPC@4 of 2 μg/mL to 10 μg/mL) | Y (MPC@4 of 2 μg/mL to 10 μg/mL) | – |
| C[C@@H](O)[C@H]1C(=O)N2C(C(=O)O)=C(S[C@@H]3CN[C@H](C(=O)Nc4cccc(C(=O)O)c4)C3)[C@H](C)[C@H]12 [Ertapenem] | – | – | – | – | – | – | – | – | MIC ([2]; Enterobacter cloacae, Enterobacter cloacae ECL1058, KPC-3, SHV-11, TEM-1, Compound 5 0 mg/L, read-out: MIC of Ertapenem): > 4 µg/mL; MIC ([2]; Enterobacter cloacae, Enterobacter cloacae ECL1059, KPC-3, SHV-12, TEM-1, Compound 5 0 mg/L, read-out: MIC of Ertapenem): 0.5 to 4 µg/mL; MIC ([2]; Escherichia coli, Escherichia coli EC1007, KPC-3, Compound 5 0 mg/L, read-out: MIC of Ertapenem): > 4 µg/mL; MIC ([2]; Klebsiella oxytoca, Klebsiella oxytoca KX1017, KPC-2, OXA-2, SHV-30, Compound 5 0 mg/L, read-out: MIC of Ertapenem): > 4 µg/mL; MIC ([2]; Klebsiella oxytoca, Klebsiella oxytoca KX1018, KPC-2, SHV-40, OXY-1, Compound 5 0 mg/L, read-out: MIC of Ertapenem): > 4 µg/mL; MIC ([2]; Klebsiella oxytoca, Klebsiella oxytoca KX1019, KPC-2 OXA-2, Compound 5 0 mg/L, read-out: MIC of Ertapenem): > 4 µg/mL; MIC ([2]; Klebsiella pneumoniae, Klebsiella pneumoniae KP 1004, KPC-2, Compound 5 0 mg/L, read-out: MIC of Ertapenem): > 4 µg/mL; MIC ([2]; Klebsiella pneumoniae, Klebsiella pneumoniae KP 1008, KPC-2, Compound 5 0 mg/L, read-out: MIC of Ertapenem): > 4 µg/mL; MIC ([2]; Klebsiella pneumoniae, Klebsiella pneumoniae KP1082, KPC-2 SHV-1, Compound 5 0 mg/L, read-out: MIC of Ertapenem): 0.5 to 4 µg/mL; MIC ([2]; Klebsiella pneumoniae, Klebsiella pneumoniae KP1083, KPC-3, SHV-1, TEM-1, Compound 5 0 mg/L, read-out: MIC of Ertapenem): > 4 µg/mL; MIC ([2]; Klebsiella pneumoniae, Klebsiella pneumoniae KP1084, KPC-3, SHV-11, TEM-1, Compound 5 0 mg/L, read-out: MIC of Ertapenem): > 4 µg/mL; MIC ([2]; Klebsiella pneumoniae, Klebsiella pneumoniae KP 1087, KPC-2, CTX-M-15, SHV-11, TEM-1, Compound 5 0 mg/L, read-out: MIC of Ertapenem): > 4 µg/mL; MIC ([2]; Klebsiella pneumoniae, Klebsiella pneumoniae KP1088, KPC-3, SHV-11, TEM-1, Compound 5 0 mg/L, read-out: MIC of Ertapenem): > 4 µg/mL |
| O=C(O)C[C@@H]1CC[C@H](NC(=O)NCc2ccccc2)B(O)O1 [Compound 18] | X (MPC@4 of less than 2 μg/mL) | X (MPC@4 of less than 2 μg/mL) | X (MPC@4 of less than 2 μg/mL) | X (MPC@4 of less than 2 μg/mL) | X (MPC@4 of less than 2 μg/mL) | Y (MPC@4 of 2 μg/mL to 10 μg/mL) | Y (MPC@4 of 2 μg/mL to 10 μg/mL) | Y (MPC@4 of 2 μg/mL to 10 μg/mL) | – |
| C[C@@H](O)[C@H]1C(=O)N2C(C(=O)O)=C(S[C@@H]3CN[C@H](CNS(N)(=O)=O)C3)[C@H](C)[C@H]12 [Doripenem] | – | – | – | – | – | – | – | – | MIC ([2]; Enterobacter cloacae, Enterobacter cloacae ECL1058, KPC-3, SHV-11, TEM-1, Compound 5 0 mg/L, read-out: MIC of Doripenem): > 4 µg/mL; MIC ([2]; Enterobacter cloacae, Enterobacter cloacae ECL1059, KPC-3, SHV-12, TEM-1, Compound 5 0 mg/L, read-out: MIC of Doripenem): 0.5 to 4 µg/mL; MIC ([2]; Escherichia coli, Escherichia coli EC1007, KPC-3, Compound 5 0 mg/L, read-out: MIC of Doripenem): 0.5 to 4 µg/mL; MIC ([2]; Klebsiella oxytoca, Klebsiella oxytoca KX1017, KPC-2, OXA-2, SHV-30, Compound 5 0 mg/L, read-out: MIC of Doripenem): 0.5 to 4 µg/mL; MIC ([2]; Klebsiella oxytoca, Klebsiella oxytoca KX1018, KPC-2, SHV-40, OXY-1, Compound 5 0 mg/L, read-out: MIC of Doripenem): 0.5 to 4 µg/mL; MIC ([2]; Klebsiella oxytoca, Klebsiella oxytoca KX1019, KPC-2 OXA-2, Compound 5 0 mg/L, read-out: MIC of Doripenem): 0.5 to 4 µg/mL; MIC ([2]; Klebsiella pneumoniae, Klebsiella pneumoniae KP 1004, KPC-2, Compound 5 0 mg/L, read-out: MIC of Doripenem): 0.5 to 4 µg/mL; MIC ([2]; Klebsiella pneumoniae, Klebsiella pneumoniae KP 1008, KPC-2, Compound 5 0 mg/L, read-out: MIC of Doripenem): 0.5 to 4 µg/mL; MIC ([2]; Klebsiella pneumoniae, Klebsiella pneumoniae KP1082, KPC-2 SHV-1, Compound 5 0 mg/L, read-out: MIC of Doripenem): 0.5 to 4 µg/mL; MIC ([2]; Klebsiella pneumoniae, Klebsiella pneumoniae KP1083, KPC-3, SHV-1, TEM-1, Compound 5 0 mg/L, read-out: MIC of Doripenem): > 4 µg/mL; MIC ([2]; Klebsiella pneumoniae, Klebsiella pneumoniae KP1084, KPC-3, SHV-11, TEM-1, Compound 5 0 mg/L, read-out: MIC of Doripenem): > 4 µg/mL; MIC ([2]; Klebsiella pneumoniae, Klebsiella pneumoniae KP 1087, KPC-2, CTX-M-15, SHV-11, TEM-1, Compound 5 0 mg/L, read-out: MIC of Doripenem): > 4 µg/mL; MIC ([2]; Klebsiella pneumoniae, Klebsiella pneumoniae KP1088, KPC-3, SHV-11, TEM-1, Compound 5 0 mg/L, read-out: MIC of Doripenem): 0.5 to 4 µg/mL |
| C[C@@H](O)[C@H]1C(=O)N2C(C(=O)O)=C(S[C@@H]3CN[C@H](C(=O)N(C)C)C3)[C@H](C)[C@H]12 [Meropenem] | – | – | – | – | – | – | – | – | MIC ([2]; Enterobacter cloacae, read-out: MIC of Meropenem, Enterobacter cloacae ECL1058, KPC-3, SHV-11, TEM-1, Compound 5 0 mg/L): > 4 µg/mL; MIC ([2]; Enterobacter cloacae, read-out: MIC of Meropenem, Enterobacter cloacae ECL1059, KPC-3, SHV-12, TEM-1, Compound 5 0 mg/L): 0.5 to 4 µg/mL; MIC ([2]; Escherichia coli, read-out: MIC of Meropenem, Escherichia coli EC1007, KPC-3, Compound 5 0 mg/L): 0.5 to 4 µg/mL; MIC ([2]; Klebsiella oxytoca, read-out: MIC of Meropenem, Klebsiella oxytoca KX1017, KPC-2, OXA-2, SHV-30, Compound 5 0 mg/L): 0.5 to 4 µg/mL; MIC ([2]; Klebsiella oxytoca, read-out: MIC of Meropenem, Klebsiella oxytoca KX1018, KPC-2, SHV-40, OXY-1, Compound 5 0 mg/L): 0.5 to 4 µg/mL; MIC ([2]; Klebsiella oxytoca, read-out: MIC of Meropenem, Klebsiella oxytoca KX1019, KPC-2 OXA-2, Compound 5 0 mg/L): 0.5 to 4 µg/mL; MIC ([2]; Klebsiella pneumoniae, read-out: MIC of Meropenem, Klebsiella pneumoniae KP 1004, KP C-2, Compound 5 0 mg/L): > 4 µg/mL; MIC ([2]; Klebsiella pneumoniae, read-out: MIC of Meropenem, Klebsiella pneumoniae KP 1008, KPC-2, Compound 5 0 mg/L): 0.5 to 4 µg/mL; MIC ([2]; Klebsiella pneumoniae, read-out: MIC of Meropenem, Klebsiella pneumoniae KP1082, KPC-2 SHV-1, Compound 5 0 mg/L): 0.5 to 4 µg/mL; MIC ([2]; Klebsiella pneumoniae, read-out: MIC of Meropenem, Klebsiella pneumoniae KP1083, KPC-3, SHV-1, TEM-1, Compound 5 0 mg/L): > 4 µg/mL; MIC ([2]; Klebsiella pneumoniae, read-out: MIC of Meropenem, Klebsiella pneumoniae KP1084, KPC-3, SHV-11, TEM-1, Compound 5 0 mg/L): > 4 µg/mL; MIC ([2]; Klebsiella pneumoniae, read-out: MIC of Meropenem, Klebsiella pneumoniae KP 1087, KPC-2, CTX-M-15, SHV-11, TEM-1, Compound 5 0 mg/L): > 4 µg/mL; MIC ([2]; Klebsiella pneumoniae, read-out: MIC of Meropenem, Klebsiella pneumoniae KP1088, KPC-3, SHV-11, TEM-1, Compound 5 0 mg/L): > 4 µg/mL |
| C[C@@H](O)[C@H]1C(=O)N2C(C(=O)O)=C(SCCN=CN)C[C@H]12 [Imipenem] | – | – | – | – | – | – | – | – | MIC ([2]; Escherichia coli, read-out: MIC of Imipenem): > 4 µg/mL |
| O=C(O)CC1C=CC[C@H](NC(=O)Cc2cccs2)B(O)O1 (stereo partly drawn) [Compound 64, 2-((3R)-2-hydroxy-3-(2-(thiophen-2-yl)acetamido)-2,3,4,7-tetrahydro-1,2-oxaborepin-7-yl)acetic acid] | Y (MPC@4 of 2 μg/mL to 10 μg/mL) | Z (MPC@4 of greater than 10 μg/mL) | Y (MPC@4 of 2 μg/mL to 10 μg/mL) | X (MPC@4 of less than 2 μg/mL) | Y (MPC@4 of 2 μg/mL to 10 μg/mL) | Z (MPC@4 of greater than 10 μg/mL) | Z (MPC@4 of greater than 10 μg/mL) | Y (MPC@4 of 2 μg/mL to 10 μg/mL) | – |
| O=C(O)C[C@@H]1C=CC[C@H](NC(=O)Cc2cccs2)B(O)O1 [Compound 67, 2-((3R,7R)-2-hydroxy-3-(2-(thiophen-2-yl)acetamido)-2,3,4,7-tetrahydro-1,2-oxaborepin-7-yl)acetic acid] | Z (MPC@4 of greater than 10 μg/mL) | Z (MPC@4 of greater than 10 μg/mL) | Y (MPC@4 of 2 μg/mL to 10 μg/mL) | Y (MPC@4 of 2 μg/mL to 10 μg/mL) | Y (MPC@4 of 2 μg/mL to 10 μg/mL) | Z (MPC@4 of greater than 10 μg/mL) | Z (MPC@4 of greater than 10 μg/mL) | Z (MPC@4 of greater than 10 μg/mL) | – |
| N[C@@H](C(=O)N[C@H]1CC[C@@H](CC(=O)O)OB1O)c1ccccc1 [Compound 9] | Z (MPC@4 of greater than 10 μg/mL) | Z (MPC@4 of greater than 10 μg/mL) | Z (MPC@4 of greater than 10 μg/mL) | Z (MPC@4 of greater than 10 μg/mL) | Z (MPC@4 of greater than 10 μg/mL) | Z (MPC@4 of greater than 10 μg/mL) | Z (MPC@4 of greater than 10 μg/mL) | Z (MPC@4 of greater than 10 μg/mL) | – |
